Measurements published in PubChem BioAssay AID2060903 (Molecular Pharmacology Branch, DTP, NCI, 2025).

System: 377384-186-R-J1-PDC complex spheroid viability
Test: Anticancer human tumor 377384-186-R-J1-PDC patient-derived pancreatic carcinoma cell line growth inhibition [RAS]
Conditions: for IC50: curve of first compound; for viability, T/C: stronger effect = lower value
How it was run: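 Tumour cells grown as complex spheroids with HUVEC endothelial cells and mesenchymal stem cells, treated with RAS pathway inhibitor combinations. Each agent spans half-log steps from near clinical Cmax, or 10 microM where Cmax is unknown.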
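Note: spheroids exposed to compounds for seven days before readout.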

## CC(=O)OC12COC1CC(O)C1(C)C(=O)C(O)C3=C(C)C(OC(=O)C(O)C(NC(=O)OC(C)(C)C)c4ccccc4)CC(O)(C(OC(=O)c4ccccc4)C21)C3(C)C (centres undefined) + CCn1c(-c2cc(N3CCN(C)CC3)cnc2C(C)OC)c2c3cc(ccc31)-c1csc(n1)CC(NC(=O)C1CC1C)C(=O)N1CCCC(N1)C(=O)OCC(C)(C)C2
Second compound 0.000949 µM
  IC50: < 31.6 nM
Second compound 0.003 µM
  IC50: < 31.6 nM
Second compound 0.00949 µM
  IC50: < 31.6 nM
Second compound 0.03 µM
  IC50: < 31.6 nM
Second compound 0.0949 µM
  IC50: < 31.6 nM
Second compound 0.3 µM
  IC50: < 31.6 nM
Second compound 0.000949 µM, first compound 0.0316 µM
  viability, T/C: 3.43%
Second compound 0.000949 µM, first compound 0.1 µM
  viability, T/C: 4.27%
Second compound 0.000949 µM, first compound 0.316 µM
  viability, T/C: 3.99%
Second compound 0.000949 µM, first compound 1 µM
  viability, T/C: 4.95%
Second compound 0.000949 µM, first compound 3.16 µM
  viability, T/C: 5.23%
Second compound 0.000949 µM, first compound 10 µM
  viability, T/C: 5.38%
Second compound 0.003 µM, first compound 0.0316 µM
  viability, T/C: 2.96%
Second compound 0.003 µM, first compound 0.1 µM
  viability, T/C: 1.47%
Second compound 0.003 µM, first compound 0.316 µM
  viability, T/C: 2.97%
Second compound 0.003 µM, first compound 1 µM
  viability, T/C: 2.21%
Second compound 0.003 µM, first compound 3.16 µM
  viability, T/C: 2.97%
Second compound 0.003 µM, first compound 10 µM
  viability, T/C: 2.38%
Second compound 0.00949 µM, first compound 0.0316 µM
  viability, T/C: 1.88%
Second compound 0.00949 µM, first compound 0.1 µM
  viability, T/C: 2.6%
Second compound 0.00949 µM, first compound 0.316 µM
  viability, T/C: 2%
Second compound 0.00949 µM, first compound 1 µM
  viability, T/C: 2.25%
Second compound 0.00949 µM, first compound 3.16 µM
  viability, T/C: 2.05%
Second compound 0.00949 µM, first compound 10 µM
  viability, T/C: 2.33%
Second compound 0.03 µM, first compound 0.0316 µM
  viability, T/C: 1.57%
Second compound 0.03 µM, first compound 0.1 µM
  viability, T/C: 1.84%
Second compound 0.03 µM, first compound 0.316 µM
  viability, T/C: 1.46%
Second compound 0.03 µM, first compound 1 µM
  viability, T/C: 1.65%
Second compound 0.03 µM, first compound 3.16 µM
  viability, T/C: 2.16%
Second compound 0.03 µM, first compound 10 µM
  viability, T/C: 1.64%
Second compound 0.0949 µM, first compound 0.0316 µM
  viability, T/C: 1.97%
Second compound 0.0949 µM, first compound 0.1 µM
  viability, T/C: 1.63%
Second compound 0.0949 µM, first compound 0.316 µM
  viability, T/C: 1.57%
Second compound 0.0949 µM, first compound 1 µM
  viability, T/C: 1.56%
Second compound 0.0949 µM, first compound 3.16 µM
  viability, T/C: 1.78%
Second compound 0.0949 µM, first compound 10 µM
  viability, T/C: 1.2%
Second compound 0.3 µM, first compound 0.0316 µM
  viability, T/C: 1.96%
Second compound 0.3 µM, first compound 0.1 µM
  viability, T/C: 1.22%
Second compound 0.3 µM, first compound 0.316 µM
  viability, T/C: 2.82%
Second compound 0.3 µM, first compound 1 µM
  viability, T/C: 1.84%
Second compound 0.3 µM, first compound 3.16 µM
  viability, T/C: 1.23%
Second compound 0.3 µM, first compound 10 µM
  viability, T/C: 1.25%

## CCc1c2c(nc3ccc(O)cc13)-c1cc3c(c(=O)n1C2)COC(=O)[C@]3(O)CC + CCn1c(-c2cc(N3CCN(C)CC3)cnc2C(C)OC)c2c3cc(ccc31)-c1csc(n1)CC(NC(=O)C1CC1C)C(=O)N1CCCC(N1)C(=O)OCC(C)(C)C2
Second compound 0.000949 µM
  IC50: < 0.949 nM
Second compound 0.003 µM
  IC50: < 0.949 nM
Second compound 0.00949 µM
  IC50: < 0.949 nM
Second compound 0.03 µM
  IC50: < 0.949 nM
Second compound 0.0949 µM
  IC50: < 0.949 nM
Second compound 0.3 µM
  IC50: < 0.949 nM
Second compound 0.000949 µM, first compound 0.000949 µM
  viability, T/C: 33.1%
Second compound 0.000949 µM, first compound 0.003 µM
  viability, T/C: 21.3%
Second compound 0.000949 µM, first compound 0.00949 µM
  viability, T/C: 10.2%
Second compound 0.000949 µM, first compound 0.03 µM
  viability, T/C: 5.07%
Second compound 0.000949 µM, first compound 0.0949 µM
  viability, T/C: 2.53%
Second compound 0.000949 µM, first compound 0.3 µM
  viability, T/C: 1.79%
Second compound 0.003 µM, first compound 0.000949 µM
  viability, T/C: 20.8%
Second compound 0.003 µM, first compound 0.003 µM
  viability, T/C: 7.71%
Second compound 0.003 µM, first compound 0.00949 µM
  viability, T/C: 4.82%
Second compound 0.003 µM, first compound 0.03 µM
  viability, T/C: 3.05%
Second compound 0.003 µM, first compound 0.0949 µM
  viability, T/C: 2.03%
Second compound 0.003 µM, first compound 0.3 µM
  viability, T/C: 1.92%
Second compound 0.00949 µM, first compound 0.000949 µM
  viability, T/C: 4.34%
Second compound 0.00949 µM, first compound 0.003 µM
  viability, T/C: 3.24%
Second compound 0.00949 µM, first compound 0.00949 µM
  viability, T/C: 2.6%
Second compound 0.00949 µM, first compound 0.03 µM
  viability, T/C: 2.11%
Second compound 0.00949 µM, first compound 0.0949 µM
  viability, T/C: 2.15%
Second compound 0.00949 µM, first compound 0.3 µM
  viability, T/C: 1.25%
Second compound 0.03 µM, first compound 0.000949 µM
  viability, T/C: 2.43%
Second compound 0.03 µM, first compound 0.003 µM
  viability, T/C: 2.09%
Second compound 0.03 µM, first compound 0.00949 µM
  viability, T/C: 2.04%
Second compound 0.03 µM, first compound 0.03 µM
  viability, T/C: 2.06%
Second compound 0.03 µM, first compound 0.0949 µM
  viability, T/C: 1.98%
Second compound 0.03 µM, first compound 0.3 µM
  viability, T/C: 1.26%
Second compound 0.0949 µM, first compound 0.000949 µM
  viability, T/C: 1.98%
Second compound 0.0949 µM, first compound 0.003 µM
  viability, T/C: 1.94%
Second compound 0.0949 µM, first compound 0.00949 µM
  viability, T/C: 1.8%
Second compound 0.0949 µM, first compound 0.03 µM
  viability, T/C: 1.65%
Second compound 0.0949 µM, first compound 0.0949 µM
  viability, T/C: 1.4%
Second compound 0.0949 µM, first compound 0.3 µM
  viability, T/C: 0.95%
Second compound 0.3 µM, first compound 0.000949 µM
  viability, T/C: 1.39%
Second compound 0.3 µM, first compound 0.003 µM
  viability, T/C: 1.76%
Second compound 0.3 µM, first compound 0.00949 µM
  viability, T/C: 1.84%
Second compound 0.3 µM, first compound 0.03 µM
  viability, T/C: 1.68%
Second compound 0.3 µM, first compound 0.0949 µM
  viability, T/C: 1.29%
Second compound 0.3 µM, first compound 0.3 µM
  viability, T/C: 0.71%
